Data set [1] addresses T1, RBP-NN-His/RBP-TruncIIN-Strep co-expressed heterodimer (Thermotoga maritima, UniProt Q9X053).
T1 construct: gene TM_0958; halves co-expressed in E. coli BL21(DE3); N-terminal His6 tag on RBP-N (border also printed as 153), N-terminal Strep-tag on RBP-TruncII
Put plainly: differential scanning calorimetry. The conditions noted are these: 10 mM sodium phosphate, 50 mM NaCl, pH 7.8; 50 μM protein, 0.5 mM ribose; irreversible unfolding; possible residual ribose carried over. It counts as binding. In general terms: In DSC, transitions show as peaks or steps in heat flow.

Data set [2] concerns the target T2, RBP-N/RBP-Trunc mixed heterodimer (Thermotoga maritima, UniProt Q9X053).
T2 construct: gene TM_0958; separately expressed halves mixed equimolar in vitro; E. coli BL21(DE3); His tag likely; dimer of heterodimers
Put plainly: isothermal titration calorimetry. The data set is classed as binding. To be noted: 10 mM sodium phosphate, 50 mM NaCl, pH 7.8, 20°C; 100 μM protein; 1:1 model.

Data set [3] addresses T3, RBP-NN-His/RBP-CN-Strep co-expressed heterodimer (Thermotoga maritima, UniProt Q9X053).
T3 construct: gene TM_0958; halves co-expressed in E. coli BL21(DE3); N-terminal His6 tag on RBP-N (border also printed as 153), N-terminal Strep-tag on RBP-C; lacks C-terminal cross-over strands; oligomeric state not determined
Put plainly: differential scanning calorimetry. It counts as binding. To be noted: 10 mM sodium phosphate, 50 mM NaCl, pH 7.8; 50 μM protein, 0.5 mM ribose; irreversible unfolding.

The target of data set [4] is T2, RBP-N/RBP-Trunc mixed heterodimer. Put plainly: differential scanning calorimetry. The data set is classed as binding. The conditions noted are these: 10 mM sodium phosphate, 50 mM NaCl, pH 7.8; 50 μM protein, 0.5 mM ribose; irreversible unfolding.
Data set [5] deals with RBP‐N/RBP‐Trunc mixed heterodimer (first generation) (Thermotoga maritima) (UniProt Q9X053). Put plainly: SEC-MALS; single purified proteins, and RBP‐N and RBP‐Trunc purified one by one and mixed in an equimolar ratio; Superdex 75 Increase 10/300 GL, 10 mM sodium phosphate, 50 mM sodium chloride, 0.02% sodium azide, pH 7.8, room temperature, 0.8 mL min^-1. A general note: Size exclusion chromatography separates by hydrodynamic size, large species first.

Data set [6] deals with the molecule itself. Described as above.

The source of these data is article PMC10601554 (Protein Science : A Publication of the Protein Society, 2023).

T2 sequence (Q9X053 entry or part of it, one chain of several): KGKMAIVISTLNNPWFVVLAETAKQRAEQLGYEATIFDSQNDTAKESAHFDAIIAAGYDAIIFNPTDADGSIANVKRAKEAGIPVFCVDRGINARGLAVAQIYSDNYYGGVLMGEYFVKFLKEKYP
T3 sequence (Q9X053 entry or part of it, one chain of several): as above
T1 sequence (Q9X053 entry or part of it, one chain of several): as above

The Kd is a measure of binding affinity in units of concentration. A higher Kd goes with a looser complex. As for `OC1OC[C@@H](O)[C@@H](O)[C@H]1O` (stereo partly drawn) [ribose], the dTm in data set [1] was 9.1 °C; in data set [3], 15.1 °C; in data set [4], ~ 14 °C. Moreover, the Kd in data set [2] came to 6.8 ± 0.7 µM.
The stoichiometry N is the number of molecules, sites or subunits per partner or assembly. Consider “RBP‐N/RBP‐Trunc mixed heterodimer (first generation) (from UniProt Q9X053 30-153; Q9X053 142-310) (complex)”, for which, in data set [5], the stoichiometry N worked out at 2.

B1: RBP‐Trunc (truncated T. maritima RBP, residues 142–310, first generation) (domain or fragment, Thermotoga maritima, UniProt Q9X053 142-310, looked up)
chain: MGEYFVKFLKEKYPDAKEIPYAELLGILSAQPTWDRSNGFHSVVDQYPEFKMVAQQSAEFDRDTAYKVTEQILQAHPEIKAIWCGNDAMALGAMKACEAAGRTDIYIFGFDGAEDVINAIKEGKQIVATIMQFPKLMARLAVEWADQYLRGERSFPEIVPVTVELVTRE
notes: also called RPB‐Trunc
On to B1, for which, in data set [6], the “stoichiometry N” value worked out at 2.
